According to paper PMC10609996, “The Toxicological Assessment of Anoectochilus burmannicus Ethanolic-Extract-Synthesized Selenium Nanoparticles Using Cell Culture, Bacteria, and Drosophila melanogaster as Suitable Models” (Nanomaterials, 2023):
“And” between values parts separate entries of the source, which are not always exact repeats. Identical values can stand only once.

Tests used:
hRBCs = assay: Hemolysis assay
Method: (§1) Human blood samples of healthy subjects were obtained from Maharaj Hospital, Chiang Mai, Thailand, which were anonymized by the laboratory and kept in a heparinized tube. […] The remaining RBCs were used in a hemolysis assay. […] Consent to participate was not applicable because of anonymous data collection. All methods were carried out following relevant guidelines and regulations.
Human RBCs were collected after the separation of hPBMCs from whole blood. The 5% RBCs suspension then was mixed with several concentrations of the various forms of selenium and incubated at 37 °C for three hours. […] Hemoglobin released by damaged cells can be used as a marker of red blood cell lysis following test agent exposure and can notice as a red-color solution that can be measured for absorbance using spectrophotometry. Triton X-100 was used as a positive control.

Drosophila melanogaster [1] = assay: SMART (wing spot test), mutagenicity; assay type: in vivo; set-up: key to Statistical diagnosis: Small Single (m = 2) / Statistical diagnosis: Large Single (m = 5) / Statistical diagnosis: Twin (m = 5) / Statistical diagnosis: Total Spots (m = 2): + = positive; − = negative; i = inconclusive; conditions: 20 mM
Method: Urethane (20 mM) was used as a mutagen (positive control) and DI was used as a negative control. The larvae were fed on each medium until pupation at 25 °C. Later, the wings of surviving flies were removed for mutant spot analysis. Approximately 40 wings in each group were scored for the presence of mutant spots, including small single spots, large single spots, and twin spots. The results were diagnosed using the estimation of spot frequencies and confidence limits for comparison with the control group, and the statistical significance was calculated as previously described by Frei and Würgler.

Caco2 = assay: Cytotoxic assay (MTT) in Caco2; assay type: cell-based, human
Method: (§2) Cell viability (%) = (Absorbance (sample))/(Absorbance (control)) × 100 […]
(§3) Cell proliferation was determined using an MTT assay at indicated time.
(§4) The solution was gently removed, then the crystal was dissolved by dimethyl sulfoxide (DMSO). The cell viability is directly related to the […]
(§5) to a decrease in cell numbers. […]
(§6) the starting point (0 h) (B-E).

MRC-5 = assay: Cytotoxic assay (MTT) in MRC-5; assay type: cell-based, human; conditions: MRC-5, MTT
Method: as §2, §3, §4, §5, §6

LX-2 = assay: Cytotoxic assay (MTT) in LX-2; assay type: cell-based, human; conditions: LX-2, MTT
Method: as §2, §3, §4, §5, §6

[2] = system: Salmonella typhimurium TA 100; assay: Ames test, mutagenicity, TA 100
Method: (§7) 2-aminoanthracene (2-AA) and 2-(2-furyl)-3-(5-nitro-2-furyl)-acrylamide (AF-2) standard mutagens were used as positive control. 2-AA was used in the presence of S9 mixture, while AF-2 was used without the S9 mixture. Deionized water (DI) and DMSO were used as negative controls for the samples and mutagens, respectively. The mixture solution was poured onto the minimal histidine agar and then incubated at 37 °C for 48 h. The revertant colonies formed on the agar plate were scored.
(§8) Three plates were investigated per dose in two independent experiments for both mutagenicity and antimutagenicity tests.

[3] = system: Salmonella typhimurium TA 98; assay: Ames test, anti-mutagenicity, TA 98; assay type: cell-based
[4] = system: Salmonella typhimurium TA 98; assay: Ames test, mutagenicity, TA 98
Method: as §7, §8

HEK-293 = assay: Cytotoxic assay (MTT) in HEK-293; assay type: cell-based, human; conditions: HEK-293, MTT
Method: as §2, §3, §4, §5, §6

hPBMCs = assay: Cytotoxicity on hPBMCs (SRB assay); conditions: at up to 16 µM of Se
Method: as §1

3T3-L1 = assay: Cytotoxic assay (MTT) in 3T3-L1; conditions: at up to 16 µM
[5] = system: Salmonella typhimurium TA 100; assay: Ames test, anti-mutagenicity, TA 100; assay type: cell-based
Method: The antimutagenicity was indicated based on percentage inhibition which was calculated as in the following equation:Antimutagenicity (%) = [1 − (b/a)] × 100
(§9) • a = revertant colony number induced via standard mutagen (positive control) • b = revertant colony number induced by standard mutagen in the presence of each sample treatment

[6] = system: Salmonella typhimurium TA 98; assay: Ames test, anti-mutagenicity, TA 98; assay type: cell-based; conditions: TA 98, +S9, PhIP (0.1 µg/Plate)
Method: To determine the antimutagenicity of the samples, 6-phenylimidazo [4,5-b]pyridine (PhIP) and 2-Amino-3-methylimidazo [4,5-f]quinoline (IQ) were used as standard mutagens (positive control) in the test of TA98 and TA100, respectively, in the presence of S9 mixture. The antimutagenicity was indicated based on percentage inhibition which was calculated as in the following equation:Antimutagenicity (%) = [1 − (b/a)] × 100
as §9

Drosophila melanogaster [7] = assay: SMART (wing spot test), anti-mutagenicity; conditions: mutagen alone, 1 mM
Method: The wing spots were scored as mentioned above. The percentage of anti-mutagenicity of the nanoparticles (% inhibition) was calculated as in the following equation:Antimutagenicity (%) = [(a − b)/a] × 100
• a = number of total spots per wing of positive mutagen control group • b = number of total spots per wing of each experimental group

[8] = TA 98, −S9, AF-2 (0.1 µg/Plate), 3.12 µM/plate
[9] = TA 98, −S9, AF-2 (0.1 µg/Plate), 6.25 µM/plate
[10] = TA 98, −S9, AF-2 (0.1 µg/Plate), 12.5 µM/plate
[11] = TA 100, +S9, IQ (0.05 µg/Plate), 3.12 µM/plate
[12] = TA 100, +S9, IQ (0.05 µg/Plate), 6.25 µM/plate
[13] = TA 100, +S9, IQ (0.05 µg/Plate), 12.5 µM/plate
[14] = TA 100, −S9, AF-2 (0.01 µg/Plate), 3.12 µM/plate
[15] = TA 100, −S9, AF-2 (0.01 µg/Plate), 6.25 µM/plate
[16] = TA 100, −S9, AF-2 (0.01 µg/Plate), 12.5 µM/plate

## Triton X-100
hRBCs; positive control, run beside each Se form
  % Hemolysis: 98 ± 0.052% and 100 ± 0.23%

## CCOC(N)=O [Urethane, ethyl carbamate]
Drosophila melanogaster [1]; 40 wings
  Frequency of Mutant Spots Per Individual: Large Single (m = 5): 10.50
  Frequency of Mutant Spots Per Individual: Small Single (m = 2): 24.75
  Frequency of Mutant Spots Per Individual: Total Spots (m = 2): 36.25
  Frequency of Mutant Spots Per Individual: Twin (m = 5): 1.0
  Number of Spots: Large Single (m = 5): 420
  Number of Spots: Small Single (m = 2): 990
  Number of Spots: Total Spots (m = 2): 1450
  Number of Spots: Twin (m = 5): 40
Drosophila melanogaster [1]; vs DI
  Statistical diagnosis: Large Single (m = 5): +
  Statistical diagnosis: Small Single (m = 2): +
  Statistical diagnosis: Total Spots (m = 2): +
  Statistical diagnosis: Twin (m = 5): +

## O=[Se]([O-])[O-].[Na+].[Na+] [Na2SeO3, sodium selenite]
Caco2; 48 h vs starting point 0 h
  effect on cell number (cell proliferation, Supplementary Figure S5): killing effect
Caco2; selenium concentration
  IC50: 4 µM and ~4 µM
MRC-5; 48 h vs starting point 0 h
  effect on cell number (cell proliferation, Supplementary Figure S5): killing effect
MRC-5; selenium concentration
  IC50: 10.5 µM
LX-2; 48 h vs starting point 0 h
  effect on cell number (cell proliferation, Supplementary Figure S5): killing effect
LX-2; selenium concentration
  IC50: 11.2 µM
[2]; TA 100, +S9, 3.12 µM/plate
  Number of Revertant Colonies: 121 ± 8
[2]; TA 100, +S9, 6.25 µM/plate
  Number of Revertant Colonies: 122 ± 11
[2]; TA 100, +S9, 12.5 µM/plate
  Number of Revertant Colonies: 126 ± 7
[2]; TA 100, −S9, 3.12 µM/plate
  Number of Revertant Colonies: 117 ± 7
[2]; TA 100, −S9, 6.25 µM/plate
  Number of Revertant Colonies: 110 ± 4
[2]; TA 100, −S9, 12.5 µM/plate
  Number of Revertant Colonies: 112 ± 7
[3]; TA98, −S9
  anti-mutagenic activity in the AF-2-induced mutation model: not observed
[3]; [8]
  % mutagenic inhibition: 9%
  Number of Revertant Colonies: 315 ± 6
[3]; [9]
  % mutagenic inhibition: 4%
  Number of Revertant Colonies: 335 ± 24
[3]; [10]
  % mutagenic inhibition: 5%
  Number of Revertant Colonies: 329 ± 14
[4]; TA 98, +S9, 3.12 µM/plate
  Number of Revertant Colonies: 25 ± 5
[4]; TA 98, +S9, 6.25 µM/plate
  Number of Revertant Colonies: 26 ± 4
[4]; TA 98, +S9, 12.5 µM/plate
  Number of Revertant Colonies: 27 ± 5
[4]; TA 98, −S9, 3.12 µM/plate
  Number of Revertant Colonies: 22 ± 2
[4]; TA 98, −S9, 6.25 µM/plate
  Number of Revertant Colonies: 21 ± 1
[4]; TA 98, −S9, 12.5 µM/plate
  Number of Revertant Colonies: 23 ± 3
[4]; TA98 and TA 100, presence or absence of S9 homogenate
  mutagenicity in Ames test: neither pro-mutagen nor mutagen
HEK-293; 48 h vs starting point 0 h
  effect on cell number (cell proliferation, Supplementary Figure S5): killing effect
HEK-293; selenium concentration
  IC50: 9 µM
hPBMCs
  cell viability of hPBMCs: not harmful
3T3-L1
  toxicity to pre 3T3-L1: not toxic
[5]; [11]
  % mutagenic inhibition: 11%
  Number of Revertant Colonies: 435 ± 24
[5]; [12]
  % mutagenic inhibition: 18%
  Number of Revertant Colonies: 404 ± 20
[5]; [13]
  % mutagenic inhibition: 21%
  Number of Revertant Colonies: 385 ± 28
[5]; TA100, +S9, IQ, 6.25–12.5 µM/plate
  inhibition of mutagen-induced revertant colonies: 18–21%
[5]; TA100, −S9
  anti-mutagenic activity in the AF-2-induced mutation model: not observed
[5]; [14]
  % mutagenic inhibition: −17%
  Number of Revertant Colonies: 541 ± 82
[5]; [15]
  % mutagenic inhibition: −24%
  Number of Revertant Colonies: 570 ± 40
[5]; [16]
  % mutagenic inhibition: −30%
  Number of Revertant Colonies: 597 ± 58
[6]; 3.12 µM/plate
  % mutagenic inhibition: 7%
  Number of Revertant Colonies: 341 ± 14
[6]; 6.25 µM/plate
  % mutagenic inhibition: 6%
  Number of Revertant Colonies: 345 ± 9
[6]; 12.5 µM/plate
  % mutagenic inhibition: 10%
  Number of Revertant Colonies: 332 ± 23
hRBCs; Se concentration 4 µM, 37 °C, three hours
  % Hemolysis: 0.01 ± 0.059%
hRBCs; Se concentration 6.25 µM, 37 °C, three hours
  % Hemolysis: 0.14 ± 0.036%
hRBCs; Se concentration 8 µM, 37 °C, three hours
  % Hemolysis: 0.06 ± 0.024%
hRBCs; Se concentration 50 µM, 37 °C, three hours
  % Hemolysis: 0.08 ± 0.074%

## Nc1ccc2cc3ccccc3cc2c1 [2-AA, 2-aminoanthracene]
[2]; TA 100, +S9, 0.5 µg/plate
  Number of Revertant Colonies: 590 ± 38
[4]; TA 98, +S9, 0.5 µg/plate
  Number of Revertant Colonies: 318 ± 24

## CCOS(C)(=O)=O [EMS, ethyl methanesulfonate]
Drosophila melanogaster [7]
  Frequency of Mutant Spots Per Individual: Large Single (>2 Cells): 2.850
  Frequency of Mutant Spots Per Individual: Small Single (1–2 Cells): 7.400
  Frequency of Mutant Spots Per Individual: Total Spots: 11.300
  Frequency of Mutant Spots Per Individual: Twin Spots: 1.050
  Number of Spots: Large Single (>2 Cells): 114
  Number of Spots: Small Single (1–2 Cells): 296
  Number of Spots: Total Spots: 452
  Number of Spots: Twin Spots: 42
Drosophila melanogaster [7]; vs deionized water
  Statistical diagnosis: Large Single (>2 Cells): +
  Statistical diagnosis: Small Single (1–2 Cells): +
  Statistical diagnosis: Total Spots: +
  Statistical diagnosis: Twin Spots: +

## Cn1c(N)nc2c3cccnc3ccc21 [IQ, 2-Amino-3-methylimidazo [4,5-f]quinoline]
[5]; TA 100, +S9, standard mutagen alone, 0.05 µg/Plate
  Number of Revertant Colonies: 490 ± 20 (0)

## NC(=O)C(=Cc1ccc([N+](=O)[O-])o1)c1ccco1 [AF-2, 2-(2-furyl)-3-(5-nitro-2-furyl)-acrylamide]
[2]; TA 100, −S9, 0.1 µg/plate
  Number of Revertant Colonies: 500 ± 73
[3]; TA 98, −S9, standard mutagen alone, 0.1 µg/Plate
  Number of Revertant Colonies: 347 ± 20 (0)
[4]; TA 98, −S9, 0.1 µg/plate
  Number of Revertant Colonies: 299 ± 20
[5]; TA 100, −S9, standard mutagen alone, 0.01 µg/Plate
  Number of Revertant Colonies: 460 ± 36 (0)
